Where two headings read alike, the source gives them in different places.
Assays:
[1] = target: Endothelin Receptor Type A (EDNRA) (Homo sapiens, UniProt P25101); assay: SAFETYscan EDNRA Calcium Flux; assay type: cell-based; conditions: Agonist mode; 10 μM HU-MCA-13; read-out: Maximal Response
[2] = target: T1, Serotonin transporter (SERT) (Homo sapiens, UniProt P31645); assay: cell-based; conditions: Blocker mode; 10 μM HU-MCA-13; read-out: Maximal Response
T1 construct: DiscoverX (SAFETYscan contract panel)

[3] = target: 5-Hydroxytryptamine (Serotonin) Receptor 1A (HTR1A) (Homo sapiens, UniProt P08908); assay: SAFETYscan HTR1A cAMP; assay type: cell-based; conditions: 10 μM HU-MCA-13
Sequence of 5-Hydroxytryptamine (Serotonin) Receptor 1A (HTR1A) (P08908 whole entry): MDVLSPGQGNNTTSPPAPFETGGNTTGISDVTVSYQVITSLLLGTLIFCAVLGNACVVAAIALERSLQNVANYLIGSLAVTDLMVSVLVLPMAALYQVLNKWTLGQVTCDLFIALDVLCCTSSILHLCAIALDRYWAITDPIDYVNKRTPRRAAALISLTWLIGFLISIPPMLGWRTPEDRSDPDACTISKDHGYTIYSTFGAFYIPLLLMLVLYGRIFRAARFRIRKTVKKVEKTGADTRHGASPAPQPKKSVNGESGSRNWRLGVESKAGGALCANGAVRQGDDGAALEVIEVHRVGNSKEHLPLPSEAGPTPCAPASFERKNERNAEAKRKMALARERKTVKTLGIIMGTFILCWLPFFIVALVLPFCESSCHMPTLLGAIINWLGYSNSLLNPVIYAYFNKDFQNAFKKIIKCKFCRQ

[4] = target: Muscarinic acetylcholine Receptor M1 (CHRM1) (Homo sapiens, UniProt P11229); assay: cell-based; conditions: 10 μM HU-MCA-13, read-out: Maximal Response
Sequence of Muscarinic acetylcholine Receptor M1 (CHRM1) (P11229 whole entry): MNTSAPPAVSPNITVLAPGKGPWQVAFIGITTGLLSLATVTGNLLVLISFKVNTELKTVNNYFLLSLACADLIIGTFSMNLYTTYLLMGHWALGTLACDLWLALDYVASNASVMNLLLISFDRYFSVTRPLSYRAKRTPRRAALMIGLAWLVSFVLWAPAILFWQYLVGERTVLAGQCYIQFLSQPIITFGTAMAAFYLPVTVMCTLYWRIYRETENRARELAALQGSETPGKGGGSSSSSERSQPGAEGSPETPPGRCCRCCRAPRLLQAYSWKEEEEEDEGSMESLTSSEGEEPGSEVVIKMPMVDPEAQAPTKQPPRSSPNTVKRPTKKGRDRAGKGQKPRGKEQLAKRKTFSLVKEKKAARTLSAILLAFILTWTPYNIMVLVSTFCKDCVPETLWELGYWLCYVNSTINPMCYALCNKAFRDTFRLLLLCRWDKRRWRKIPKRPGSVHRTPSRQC

[5] = target: T2, Nicotinic acetylcholine Receptor-alpha-4 beta-2 (nAChR (a4/b2)) (Homo sapiens, UniProt P17787+P43681); assay: cell-based; assay type: cell-based; conditions: 10 μM HU-MCA-13, read-out: Maximal Response
T2 construct: DiscoverX (SAFETYscan contract panel)
T2 sequence (P43681 29-627 limits assumed): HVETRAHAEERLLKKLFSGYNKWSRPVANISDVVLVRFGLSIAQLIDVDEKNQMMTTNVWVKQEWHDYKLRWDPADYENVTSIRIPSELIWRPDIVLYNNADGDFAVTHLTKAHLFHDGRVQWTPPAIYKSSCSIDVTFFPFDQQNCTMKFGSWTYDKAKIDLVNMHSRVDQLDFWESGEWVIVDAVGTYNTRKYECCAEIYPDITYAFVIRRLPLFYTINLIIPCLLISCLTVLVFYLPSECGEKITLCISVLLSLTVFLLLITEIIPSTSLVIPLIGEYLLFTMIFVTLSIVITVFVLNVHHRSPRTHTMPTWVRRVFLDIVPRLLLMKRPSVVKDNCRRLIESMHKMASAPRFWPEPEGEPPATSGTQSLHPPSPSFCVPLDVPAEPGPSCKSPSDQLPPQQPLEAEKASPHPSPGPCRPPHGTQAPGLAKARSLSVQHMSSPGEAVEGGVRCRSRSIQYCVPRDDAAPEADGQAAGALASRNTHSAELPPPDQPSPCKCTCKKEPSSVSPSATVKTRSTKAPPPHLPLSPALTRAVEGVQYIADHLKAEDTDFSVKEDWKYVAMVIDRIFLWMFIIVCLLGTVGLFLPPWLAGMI
T2 sequence (P17787 26-502): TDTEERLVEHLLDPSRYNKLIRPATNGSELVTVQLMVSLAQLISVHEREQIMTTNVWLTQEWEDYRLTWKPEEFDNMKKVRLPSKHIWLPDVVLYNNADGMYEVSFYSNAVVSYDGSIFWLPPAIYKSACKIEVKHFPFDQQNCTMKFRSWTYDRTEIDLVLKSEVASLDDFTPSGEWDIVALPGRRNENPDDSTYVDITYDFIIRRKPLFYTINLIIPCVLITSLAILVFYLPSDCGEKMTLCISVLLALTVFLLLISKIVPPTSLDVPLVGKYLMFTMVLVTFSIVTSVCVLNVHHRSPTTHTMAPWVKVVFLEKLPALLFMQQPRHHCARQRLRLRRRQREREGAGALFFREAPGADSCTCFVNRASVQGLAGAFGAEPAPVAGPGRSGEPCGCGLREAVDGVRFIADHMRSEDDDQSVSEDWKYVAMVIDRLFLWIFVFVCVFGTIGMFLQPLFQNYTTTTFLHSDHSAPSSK

[6] = target: Adrenergic Receptor β2 (ADRB2) (Homo sapiens, UniProt P07550); assay: SAFETYscan ADRB2 cAMP; assay type: cell-based; conditions: 10 μM HU-MCA-13, read-out: Maximal Response
Sequence of Adrenergic Receptor β2 (ADRB2) (P07550 whole entry): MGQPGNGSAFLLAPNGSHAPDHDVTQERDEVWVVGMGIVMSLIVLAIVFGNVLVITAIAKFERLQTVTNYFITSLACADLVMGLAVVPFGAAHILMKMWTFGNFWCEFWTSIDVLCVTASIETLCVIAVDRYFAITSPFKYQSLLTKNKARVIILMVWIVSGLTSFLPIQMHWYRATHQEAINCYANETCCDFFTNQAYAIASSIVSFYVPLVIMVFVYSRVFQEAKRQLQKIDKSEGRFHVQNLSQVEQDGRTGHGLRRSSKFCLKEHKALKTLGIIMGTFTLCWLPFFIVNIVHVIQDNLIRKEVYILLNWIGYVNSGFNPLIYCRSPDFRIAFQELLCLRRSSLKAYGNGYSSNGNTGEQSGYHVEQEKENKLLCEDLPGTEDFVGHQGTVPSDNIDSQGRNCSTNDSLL

Cyclooxygenase 2 (COX 2) = target: T3, Cyclooxygenase 2 (COX 2) (Homo sapiens, UniProt P35354); assay: SAFETYscan COX 2 Enzymatic; assay type: biochemical; conditions: Inhibitor mode; 10 μM HU-MCA-13; read-out: Maximal Response
T3 construct: DiscoverX (SAFETYscan contract panel)
T3 sequence (P35354 18-604): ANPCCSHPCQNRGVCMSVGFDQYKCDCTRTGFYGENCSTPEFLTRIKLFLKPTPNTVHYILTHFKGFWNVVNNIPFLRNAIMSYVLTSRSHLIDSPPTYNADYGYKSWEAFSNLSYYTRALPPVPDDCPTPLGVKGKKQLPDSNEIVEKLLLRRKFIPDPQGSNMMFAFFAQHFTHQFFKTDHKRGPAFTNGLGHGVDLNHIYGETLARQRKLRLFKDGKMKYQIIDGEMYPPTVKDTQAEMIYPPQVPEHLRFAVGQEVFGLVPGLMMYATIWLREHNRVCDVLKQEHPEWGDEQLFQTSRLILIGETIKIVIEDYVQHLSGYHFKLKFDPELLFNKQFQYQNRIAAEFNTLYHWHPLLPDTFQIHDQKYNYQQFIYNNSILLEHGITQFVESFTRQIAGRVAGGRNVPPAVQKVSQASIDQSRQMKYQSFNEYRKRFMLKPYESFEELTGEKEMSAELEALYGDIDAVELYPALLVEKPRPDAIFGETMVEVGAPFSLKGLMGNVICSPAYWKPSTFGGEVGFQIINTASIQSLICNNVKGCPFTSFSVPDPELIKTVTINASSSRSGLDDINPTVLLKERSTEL

[7] = target: T4, Lymphocyte Cell-Specific Protein-Tyrosine Kinase (Src family) (LCK) (Homo sapiens, UniProt P06239); assay: SAFETYscan LCK kinase Binding; conditions: Inhibitor mode, 10 μM HU-MCA-13, read-out: Maximal Response
T4 construct: DiscoverX (KINOMEscan)

[8] = target: Voltage-gated L-type calcium channel (CAV1.2) (Homo sapiens, UniProt Q13936); assay: in vitro; parameters: dose or concentration left out as unconfirmed
[9] = target: Histamine Receptor H2 (HRH2) (Homo sapiens, UniProt P25021); assay: SAFETYscan HRH2 cAMP; assay type: cell-based; conditions: 10 μM HU-MCA-13; for Emax: read-out: Maximal Response
Sequence of Histamine Receptor H2 (HRH2) (P25021 whole entry): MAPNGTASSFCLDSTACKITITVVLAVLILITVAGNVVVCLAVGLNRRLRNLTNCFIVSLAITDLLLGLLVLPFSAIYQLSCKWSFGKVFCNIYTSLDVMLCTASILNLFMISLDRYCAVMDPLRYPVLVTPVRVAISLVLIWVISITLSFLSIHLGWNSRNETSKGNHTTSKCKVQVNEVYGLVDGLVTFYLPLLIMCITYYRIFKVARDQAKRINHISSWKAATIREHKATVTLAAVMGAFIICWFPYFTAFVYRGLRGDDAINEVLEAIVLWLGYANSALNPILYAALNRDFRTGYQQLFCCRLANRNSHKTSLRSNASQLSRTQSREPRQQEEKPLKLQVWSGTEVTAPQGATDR

PC12 cells = assay: Additive neurotropic effect between HU-MCA-13 and NGF, PC12 neurite outgrowth; assay type: cell-based, rat
Procedure: PC12 cells were cultured in T-200 flasks in high glucose (4.5 gr/L) DMEM medium supplemented with 7% FCS, 7% horse serum and 1% penicillin and streptomycin. Cells will be maintained at 37° C. in a humidified incubator containing 6% CO2. All experiments were carried out in a GLP clean room, according to ISO 7 requirements (10,000 particles/m^3). For neurotropic experiments, tissue culture Falcon plates were coated with 200 μg/ml collagen type 1 and placed under UV light for 30 minutes for sterilization. Thereafter, one ml of PC12 cell suspension (5000 cells/well) was applied in 12 or 24 well plate, respectively. The cultures were maintained in the incubator two days before exposure to investigated compound. Each neurotropic experiment contained two controls. The first consisted of untreated cells (negative control), representing the random effect: “noise signal”—the ability of cells to spontaneously grow neurite outgrowth which in seven days are of a length less than two-fold cell diameter. Also, negative controls consisted of cultures treated with 1% DMSO, solvent used to solubilize HU-MCA-13. The positive controls represented neuronal cultures treated with 50 ng/ml NGF, indicating maximal neurite outgrowth that can be achieved in this model. The experimental group consisted of PC12 cells treated with 10 μM HU-MCA-13. In each experiment, after two and seven days, six cultures will be evaluated for neurotropic effect. These consecutive observations allow measurement of the progress of neurite outgrowth elongation and the percentage of cells with neurites (Katzir et al. A quantitative bioassay for nerve growth factor, using PC12 clones expressing different levels of trkA receptors. J Mol Neurosci. 2002; 18(3):251-64). In order to assess neurotropic effect, the neurite outgrowth length in each culture was quantified. For this purpose, each culture was placed under an inverted microscope and photographed by the attached camera. Each well was photographed at three to five representative areas. After acquiring the photos, they were analyzed by ImageJ, NIH software. The neurite outgrowth was estimated by fractal dimension (Df), a statistical parameter that describes the fractional space (area and length) filled by neurite outgrowth. Df ranged from 0 to 1.20. This method estimated the amount of picsels covered by neurites/cells compared to empty space per square field, and therefore plotting log(number of square boxes) vs. log(size in pixels) relationship generated a linear curve with Df representing the slope of the curve. Every photograph that was taken, was opened in a Photoshop software and a new layer was generated on it. Using a 5-pixel wide digital pencil tool, all the outgrowths were marked and the layer with the markers (outgrowth network) were saved in a 0-255 gray scale. Thereafter, the saved layer was opened by ImageJ NIH software.
Using an established PC12 neurotropic in vitro assay, the regenerative enhancing effect of HU-MCA-13 when applied concomitantly, together with NGF, a known neurotrophin was investigated. […] NGF alone, as positive control, at the conventional dose of 50 ng/ml enhanced neurite outgrowth to a Df value of 0.54 at 2 days and 0.4 at 7 days of treatment (FIG. 5). To verify a possible additive effect, the cultures with a mixture of low dose NGF (1 ng/ml generating 10% neurite outgrowth=Df of 0.05) and 1 μM HU-MCA-13 generating about 10-15% neurite outgrowth=Df of 0.04) were tested and found after 2 days a Df of 0.85 and after 7 days a Df of 0.38. NGF is released by hematopoietic cells during polyneuropathy inflammatory process, this finding further strength the possibility of a potential enhancement regenerative effect of this drug upon in vivo therapy.

[10] = target: T5, Nuclear Hormone Androgen Receptor (AR) (Homo sapiens, UniProt P10275); assay: SAFETYscan AR Nuclear Hormone Receptor Translocation; assay type: cell-based; conditions: 10 μM HU-MCA-13
T5 construct: DiscoverX (SAFETYscan contract panel)
T5 sequence (P10275 whole entry): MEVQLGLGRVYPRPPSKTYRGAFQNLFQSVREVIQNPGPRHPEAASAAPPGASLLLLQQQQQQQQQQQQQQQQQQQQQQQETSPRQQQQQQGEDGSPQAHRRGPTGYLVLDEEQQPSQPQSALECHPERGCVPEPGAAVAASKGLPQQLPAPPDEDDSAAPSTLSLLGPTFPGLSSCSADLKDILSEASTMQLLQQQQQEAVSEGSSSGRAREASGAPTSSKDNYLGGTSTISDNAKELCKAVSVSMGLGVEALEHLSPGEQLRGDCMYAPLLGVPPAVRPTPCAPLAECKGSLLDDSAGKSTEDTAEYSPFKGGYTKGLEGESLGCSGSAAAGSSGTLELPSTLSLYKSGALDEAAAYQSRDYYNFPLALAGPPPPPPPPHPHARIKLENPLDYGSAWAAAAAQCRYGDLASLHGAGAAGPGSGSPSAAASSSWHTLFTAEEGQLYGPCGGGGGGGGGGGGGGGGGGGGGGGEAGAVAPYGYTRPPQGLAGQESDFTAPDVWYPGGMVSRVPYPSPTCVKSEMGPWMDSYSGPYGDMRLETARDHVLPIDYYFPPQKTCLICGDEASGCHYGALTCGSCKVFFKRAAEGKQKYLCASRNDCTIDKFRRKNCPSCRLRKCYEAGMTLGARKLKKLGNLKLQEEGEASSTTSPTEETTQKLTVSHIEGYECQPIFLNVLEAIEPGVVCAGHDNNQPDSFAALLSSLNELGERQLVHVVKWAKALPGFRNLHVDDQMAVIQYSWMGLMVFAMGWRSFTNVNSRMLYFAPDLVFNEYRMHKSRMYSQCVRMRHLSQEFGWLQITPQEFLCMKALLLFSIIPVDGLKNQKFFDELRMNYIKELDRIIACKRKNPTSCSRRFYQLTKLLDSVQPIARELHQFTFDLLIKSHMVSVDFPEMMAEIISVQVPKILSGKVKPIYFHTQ

[11] = target: T6, Acetylcholinesterase (AChE) (Homo sapiens, UniProt P22303); assay: SAFETYscan AChE Enzymatic; assay type: biochemical; conditions: Inhibitor mode; 10 μM HU-MCA-13; read-out: Maximal Response
T6 construct: DiscoverX (SAFETYscan contract panel)
T6 sequence (P22303 32-614): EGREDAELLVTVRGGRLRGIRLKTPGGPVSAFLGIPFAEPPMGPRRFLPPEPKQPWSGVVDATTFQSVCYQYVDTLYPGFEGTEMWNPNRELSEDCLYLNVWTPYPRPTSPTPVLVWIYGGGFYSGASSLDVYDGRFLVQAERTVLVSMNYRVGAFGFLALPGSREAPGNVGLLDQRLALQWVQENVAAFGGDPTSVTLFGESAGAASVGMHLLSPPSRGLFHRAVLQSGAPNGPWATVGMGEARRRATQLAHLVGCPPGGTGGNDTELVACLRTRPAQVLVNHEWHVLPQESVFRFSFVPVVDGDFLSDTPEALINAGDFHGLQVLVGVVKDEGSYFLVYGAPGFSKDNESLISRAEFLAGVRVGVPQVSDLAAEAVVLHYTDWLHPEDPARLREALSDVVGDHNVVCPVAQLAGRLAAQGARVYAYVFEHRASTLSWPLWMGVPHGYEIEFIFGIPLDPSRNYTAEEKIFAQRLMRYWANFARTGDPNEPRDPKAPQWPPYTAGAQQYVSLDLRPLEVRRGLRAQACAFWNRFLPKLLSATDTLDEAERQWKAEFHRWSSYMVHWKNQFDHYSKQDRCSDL

[12] = target: T7, Dopamine transporter (DAT) (Homo sapiens, UniProt Q01959); assay: SAFETYscan DAT Transporter; assay type: cell-based; conditions: Blocker mode; 10 μM HU-MCA-13; read-out: Maximal Response
T7 construct: DiscoverX (SAFETYscan contract panel)

[13] = read-out: Maximal Response, Agonist mode

SMILES: C=CCC1CCC[C@@H](CCC(=O)O)C1=C (stereo partly drawn) [Compound 13]
- Emax [1]: 0%
- Emax [2]: 15.4%
- Emax [3, 13]: 7.66%
- Emax ([3]; read-out: Maximal Response, Antagonist mode): 0%
- Emax ([4]; Agonist mode): 0%
- Emax ([4]; Antagonist mode): 7.43%
- Emax ([5]; Blocker mode): 5.95%
- Emax ([5]; Opener mode): 0%
- Emax ([6]; Agonist mode): 1.29%
- Emax ([6]; Antagonist mode): 8.23%
- Emax (Cyclooxygenase 2 (COX 2)): 7.99%
- Emax [7]: 12.8%
- Emax [8]: 3.82%
- Emax ([9]; Agonist mode): 1.78%
- Maximal Response ([9]; Antagonist mode): 26.94%
- Emax ([9]; Antagonist mode): 26.9%
- neurite outgrowth (PC12 cells; 1 μM HU-MCA-13): 10-15%
- neurite outgrowth Df (PC12 cells; 1 μM HU-MCA-13): 0.04
- neurite outgrowth Df (PC12 cells; HU-MCA-13 alone at 10 μM, 2 days): 0.36
- neurite outgrowth Df (PC12 cells; HU-MCA-13 alone at 10 μM, 7 days): 0.30
- Emax ([10]; Antagonist mode, read-out: Maximal Response): 5.27%
- Emax [10, 13]: 0%
- Emax [11]: 4.27%
- Emax [12]: 0%

— patent US20200239398A1, “METHYLENE-CYCLOALKYLACETATE DERIVATIVES AND THEIR USE IN TREATMENT OF NEUROTROPIC CONDITIONS” (Yissum Research Development Company of The Hebrew …, priority 2018, published 2020)
